# Results as given in PMC12481576, “Barbituric Acid Derivatives as Covalent Inhibitors of Leishmania braziliensis Dihydroorotate Dehydrogenase” (Journal of Medicinal Chemistry, 2025).
# Read-outs that look alike come from different tables or passages of the source.
# Assays:
# LbDHODH = LbDHODH (Leishmania braziliensis, UniProt E9AI53); assay: biochemical; conditions: for IC50: LbDHODH
# Method: To assess the ability of compounds 2a–2i to inhibit LbDHODH via covalent bond formation with Cys^131, we initially screened them at a concentration of 100 μM under two conditions: with and without a 4-h preincubation with the enzyme.
# The experiments were performed in a 96-well microplate reader (SpectraMax Plus 384, Molecular Devices, USA), containing the […] of the buffer 60 mM DCIP, 50 mM Tris pH 8.15, 150 mM KCl, 0.1% Triton X-100, 50 μM DHO and 10 μM of LbDHODH at 165 nM. The reaction was monitored every 3 s at 610 nm over a period of 60 s, in triplicate, for the control and each concentration of the inhibitor. All assays were performed without incubation (0h) and with 4-h preincubation of the inhibitor with LbDHODH, using 5% DMSO (v/v) as control. […]. […] The resulting kobs values were plotted as a function of inhibitor concentration, and the data in the initial linear region was fit to determine the slope, which is kinact/KI. All regressions were performed with GraphPad Prism 9.
# HsDHODH = biological target: T1, HsDHODH (Homo sapiens, UniProt Q02127); assay: Selectivity assay: HsDHODH single-dose inhibition (DCIP reduction); format: biochemical
# T1 construct: made in house
# Method: […]. This finding highlights the potential of barbituric acid derivatives as selective inhibitors of LbDHODH.
# Human DHODH expression and purification were conducted following a protocol previously established in our laboratory. The purification was carried out by affinity chromatography on a Ni-NTA Agarose column (Qiagen[…] Cat. No. 30210). […] The reaction was performed in triplicate, initiated by adding 195 μL of reaction buffer to 5 μL of HsDHODH protein solution for a final concentration of 20 nM enzyme. As a blank, 195 μL of reaction buffer was added to 5 μL of Buffer A. The reaction was monitored at 610 nm every 3 s over 60 s. As a control, 5 μL of enzyme was added to 195 μL of reaction medium without compound. Enzymatic velocity was calculated, and the percentage of relative enzymatic activity was determined relative to the control.
# [1] = test system: Leishmania braziliensis promastigotes; assay: Leishmanicidal activity, promastigote growth (SYBR Green, 72 h); format: cell-based, Leishmania (V.) braziliensis (MHOM/BR/1975/M2904); conditions: Leishmania braziliensis, L. braziliensis promastigotes, max 200 μM
# Method: The cultures were adjusted to 4 × 10^6 parasites per mL, and 50 μL of each culture was added on a test plate with 384 wells (Corning, #CLS3658), along with the controls and compounds to be tested. Previously diluted compounds in DMSO were added to plates in decreasing concentrations, with a maximum concentration of 200 μM. Parasites were exposed to a final concentration of DMSO in various dilutes (final = 0.5%), and the culture medium was used as the control for the experiment. […] After adding the lysis buffer, the plates were incubated in the dark for 2 h with gentle shaking. The readings were done using a SpectraMax M3 reader (excitation at 485 nm and emission at 535 nm).
# [2] = Cell viability / cytotoxicity assay (PrestoBlue, 72 h); format: cell-based; conditions: human
# Method: THP-1 cells (American Type Cell Collection, #TIB-202) were acquired in 2019 and stored frozen in liquid nitrogen. The cells were then maintained in RPMI 1640 (Thermo Fisher Scientific, #S31800–022) at 37 °C in a 5% CO2 atmosphere and routinely tested for Mycoplasma contamination by PCR using the primers 5′-[…] and 5′-[…]. To test the toxicity of compounds, 5000 cells were added to 96-well plates with a final volume of 80 μL centrifuged at 400g for 2 min and incubated with 150 ng/mL of phorbol myristate acetate (Merck, #P8139) for 48 h. The medium was replaced, and after 24 h, the compounds were added and tested at decreasing concentrations starting from 200 μM (10 μL/well). After 72 h of incubation, 10 μL of PrestoBlue Cell Viability Reagent (Thermo Fisher Scientific, #A13262) was added per well. After adding the reagent, the cells were incubated for 2 h at 37 °C in a 5% CO2 atmosphere, and fluorescence readings were performed using the SpectraMax M3 reader (excitation at 560 nm and emission at 590 nm).
# [3] = 0 h, pH 8.15, read-out: LbDHODH Activity±SD (%)
# [4] = 4 h, pH 8.15, read-out: LbDHODH Activity±SD (%)
# [5] = IC50 0 h, without preincubation
# [6] = read-out: Single dose (0h) % activity
# [7] = read-out: Single dose (4h) % activity
# [8] = THP-1 cell line, 72 h, max 200 μM, read-out: CC50
# T1 sequence (Q02127 whole entry): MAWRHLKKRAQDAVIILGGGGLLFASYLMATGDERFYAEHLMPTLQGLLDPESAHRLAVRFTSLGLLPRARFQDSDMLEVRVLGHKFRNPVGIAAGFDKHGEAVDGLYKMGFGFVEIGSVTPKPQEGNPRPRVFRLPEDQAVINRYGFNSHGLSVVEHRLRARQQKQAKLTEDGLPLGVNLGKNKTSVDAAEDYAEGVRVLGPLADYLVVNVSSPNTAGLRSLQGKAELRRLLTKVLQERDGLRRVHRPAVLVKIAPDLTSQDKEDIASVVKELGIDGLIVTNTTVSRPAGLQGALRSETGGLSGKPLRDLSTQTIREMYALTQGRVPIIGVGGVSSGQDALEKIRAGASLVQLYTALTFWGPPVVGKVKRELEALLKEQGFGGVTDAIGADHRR
# Sequence of LbDHODH (E9AI53 entry or part of it): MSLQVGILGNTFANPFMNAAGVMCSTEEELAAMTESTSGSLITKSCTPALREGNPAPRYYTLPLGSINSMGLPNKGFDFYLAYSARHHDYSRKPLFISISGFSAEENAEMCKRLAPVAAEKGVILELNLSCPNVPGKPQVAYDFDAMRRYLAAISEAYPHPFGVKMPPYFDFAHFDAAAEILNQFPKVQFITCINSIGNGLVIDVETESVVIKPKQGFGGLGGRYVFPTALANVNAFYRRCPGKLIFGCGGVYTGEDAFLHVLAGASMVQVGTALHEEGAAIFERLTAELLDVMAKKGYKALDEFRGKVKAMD
smiles,measurement,setting,value
"O=C1NC(=O)C(=Cc2ccc(C(=O)O)cc2)C(=O)N1 [2b, 4-((2,4,6-Trioxotetrahydropyrimidin-5(2H)-ylidene)methyl)benzoic Acid]",activity at 0.195312 µM,LbDHODH; [3],98 ± 18%
same,activity at 0.390625 µM,LbDHODH; [3],96 ± 9%
same,activity at 0.78125 µM,LbDHODH; [3],100 ± 8%
same,activity at 1.5625 µM,LbDHODH; [3],96 ± 7%
same,activity at 3.125 µM,LbDHODH; [3],97 ± 7%
same,activity at 6.25 µM,LbDHODH; [3],94 ± 18%
same,activity at 12.5 µM,LbDHODH; [3],97 ± 10%
same,activity at 25 µM,LbDHODH; [3],72 ± 10%
same,activity at 50 µM,LbDHODH; [3],72 ± 6%
same,activity at 100 µM,LbDHODH; [3],65 ± 5%
same,activity at 200 µM,LbDHODH; [3],60 ± 22%
same,activity at 400 µM,LbDHODH; [3],86 ± 18%
same,activity at 0.195312 µM,LbDHODH; [4],94 ± 11%
same,activity at 0.390625 µM,LbDHODH; [4],99 ± 11%
same,activity at 0.78125 µM,LbDHODH; [4],91 ± 20%
same,activity at 1.5625 µM,LbDHODH; [4],80 ± 8%
same,activity at 3.125 µM,LbDHODH; [4],90 ± 6%
same,activity at 6.25 µM,LbDHODH; [4],83 ± 13%
same,activity at 12.5 µM,LbDHODH; [4],65 ± 4%
same,activity at 25 µM,LbDHODH; [4],66 ± 4%
same,activity at 50 µM,LbDHODH; [4],29 ± 5%
same,activity at 100 µM,LbDHODH; [4],15 ± 1%
same,activity at 200 µM,LbDHODH; [4],13 ± 6%
same,activity at 400 µM,LbDHODH; [4],7 ± 2%
same,IC50,LbDHODH; [5],> 100 µM
same,IC50,"LbDHODH; IC50 4 h, 4-h preincubation",22 ± 1 µM
same,activity at 100 µM,LbDHODH; [6],70 ± 10%
same,activity at 100 µM,LbDHODH; [7],10 ± 2%
same,inhibition at 100 µM,LbDHODH; read-out: enzyme inhibition,90 to 93%
same,activity at 100 µM,HsDHODH; [6],105 ± 12%
same,activity at 100 µM,HsDHODH; [7],99 ± 10%
same,EC50,[1],> 200 µM
same,CC50 at 72 h,[2]; [8],> 200 µM
"O=C1NC(=O)C(Cc2ccccc2)C(=O)N1 [3a, 5-Benzylpyrimidine-2,4,6(1H,3H,5H)-trione]",IC50,LbDHODH; [5],> 100 µM
same,IC50,"LbDHODH; IC50 4 h, 4-h preincubation",> 100 µM
same,activity at 100 µM,LbDHODH; [6],90 ± 10%
same,activity at 100 µM,LbDHODH; [7],70 ± 8%
same,activity at 100 µM,HsDHODH; [6],109 ± 12%
same,activity at 100 µM,HsDHODH; [7],97 ± 9%
same,EC50,[1],> 200 µM
same,CC50 at 72 h,[2]; [8],> 200 µM
"O=C1NC(=O)C(Cc2ccc(C(=O)O)cc2)C(=O)N1 [3b, 4-((2,4,6-Trioxohexahydropyrimidin-5-yl)methyl)benzoic Acid]",IC50,LbDHODH; [5],> 100 µM
same,IC50,"LbDHODH; IC50 4 h, 4-h preincubation",> 100 µM
same,activity at 100 µM,LbDHODH; [6],109 ± 3%
same,activity at 100 µM,LbDHODH; [7],69 ± 2%
same,activity at 100 µM,HsDHODH; [6],92 ± 10%
same,activity at 100 µM,HsDHODH; [7],83 ± 8%
same,EC50,[1],> 200 µM
same,CC50 at 72 h,[2]; [8],> 200 µM
"C[C@@H]1[C@H](O)[C@@H](C)/C=C/C=C/C=C/C=C/C=C/C=C/C=C/[C@H](O[C@@H]2O[C@H](C)[C@@H](O)[C@H](N)[C@@H]2O)C[C@@H]2O[C@](O)(C[C@@H](O)C[C@@H](O)[C@H](O)CC[C@@H](O)C[C@@H](O)CC(=O)O[C@H]1C)C[C@H](O)[C@H]2C(=O)O [Amp. B, Amphotericin B, reference compound]",EC50,[1]; read-out: EC50,0.4 ± 0.3 µM
same,CC50 at 72 h,[2],6 ± 2 µM
